Paper PMC10303920, “Competition between skin antimicrobial peptides and commensal bacteria in type 2 inflammation enables survival of S. aureus” (Cell reports, 2023)

Legend:
[1] = system: mixture of S. aureus (ATCC35556), ShA9-WT and ShA9-ΔLanti; experiment: Staphylococcus competition assay in vitro; format: cell-based, Staphylococcus aureus, Staphylococcus hominis; conditions: RPMI1640, 1 × 10^6 CFU/mL each strain, 30°C, 3 h, Figure 6B
Protocol: Three Staphylococcus strains, S. aureus (ATCC35556), ShA9-WT (antibiotic-producing strain) or ShA9-Dlanti mutant (non-antimicrobial strain) were individually cultured in TSB. Bacterial cells were washed with PBS and re-suspended in fresh PBS. For in vitro competition assay, three bacterial strains were suspended in RPMI1640 media (1mL) at 1 × 10^6 CFU/mL each and LL-37 was added at 0, 1, 2, 4, 8, 16μM. Bacterial mixture were incubated at 30°C for 3 h without shaking. […] Proportion of three Staphylococcus strains was determined by CFU counting on mannitol salt agar with egg yolk for total Staphylococcus CFU and on Barid-Parker agar for S. aureus. Relative proportion of Staphylococcus species was determined as following; S. aureus: CFUs on Baird-Parker CFU/CFUs on mannitol salt agar, CoNS: CFUs on mannitol salt agar – CFUs on Baird-Parker. Ratio of ShA9-WT to ShA9-DLanti mutant were measured by analyzing 12 colonies of pink color CoNS colonies without halo on mannitol salt agar from each sample with colony PCR using lantibiotic-specific primers (key resources table).
Survival of S. aureus and CoNS were measured on Baird-Parker agar for S. aureus or mannitol salt agar with egg yolk for total Staphylococcus species using easySpiral automatic diluter plater with exponential mode or circle mode and automatic colony counter (Interscience Inc., France). […]

ShA9-ΔLanti = experiment: Synergistic antimicrobial assay between LL-37 and ShA9 lantibiotics; format: cell-based, Staphylococcus hominis; conditions: sub-antimicrobial doses of LL-37 (4 or 8 μM) plus conditioned medium from ShA9-WT, 90% RPMI/10% TSB, 30°C, 24 h; Figure 5A
Protocol: ShA9 or S. epidermidis A11 strains, lantibiotic producing CoNS, were cultured in TSB at 37°C with shake overnight. Bacteria were removed by centrifugation, followed by sterile filtration with 0.22μm membrane. Lantibiotics from each strain was precipitated by adding ammonium sulfate into the sterile conditioned media at 70% saturation. The ammonium sulfate precipitation of conditioned media were dissolved in 90% RPMI1640 supplemented by 10% TSB. ShA9-DLanti mutant or S. hominis C6 strain were cultured in TSB at 37°C overnight and washed with PBS. These strain was incubated with conditioned media precipitation (0–100%) along with 0, 4, 8mM of LL-37 in 90% RPMI/10% TSB at 30°C for 24 h. Concentration of conditioned media precipitation added was calculated based on the original volume of sterile conditioned media. Bacterial survival was evaluated by measuring OD600 or counting CFUs.

[2] = system: CoNS-AM− strains of S. epidermidis or S. hominis; experiment: Bacterial survival on pigskin, non-antibiotic-producing CoNS; format: cell-based; conditions: LL-37 2.5 nmol on 2.5 × 2.5 cm pigskin sheet, 1 × 10^6 CFU, 30°C, 24 h; Figure 4F
Protocol: Fresh-frozen pigskin sheets were obtained from Loretta Tomlin Animal Technologies (Livermore, CA) and sanitized by surgical brush with 3% chloroxylenol. The skin sheet was cut into 2.5 cm × 2.5 cm and rinsed with sterile PBS more than 20 times to remove chloroxylenol residue. Synthetic LL-37 (2.5nanomol/50μL H2O) or equal volume of vehicle was applied to the surface of sanitized pig skin. Antibiotic-producing or non-antibiotic-producing strain of CoNS (1 × 10^6 CFU/10μL PBS) was applied on the pigskin. Pigskin sheet was placed on a 6-well plate and incubated at 30°C for 24 h. The entire skin sheet was rubbed 50 times with nylon foam swab (Puritan) pre-moisturized with PBS to collect bacteria on the skin surface. Swab sample was suspended in 1mL of 85% TSB/15% glycerol and frozen until analysis.

LL-37 was tested, and the “Shift in relative proportion of the bacterial mixture at lower LL-37 concentrations” value ([1]; LL-37 1–4 μM) was “favor growth of S. aureus and ShA9-ΔLanti over the antibiotic-producing ShA9-WT”, the “Effect on the bacterial mixture at higher LL-37 concentrations” value ([1]; LL-37 8–16 μM) was “inhibited both the antibiotic-producing CoNS and S. aureus” and the “Growth of ShA9-ΔLanti with the combination of LL-37 and ShA9 CM containing lantibiotics” value (ShA9-ΔLanti) was “synergistically inhibited growth”. For the same substance, the “Survival of CoNS strains without antibiotic activity on pigskin” value [2] was “did not inhibit”.
